Measurements: patent publication US6846625B1, “Method for identifying validated target and assay combination for drug development” (priority 1998, dated 2005)
Read-outs that look alike come from different tables or passages of the source. Ends that are not written are not given here. Peptide text beside a SMILES is read from it.

Assays:
E. coli pPROTet-GST = test: Lethal i.p. infection in mice, vector control strain; type: in vivo, CD-1 female mice; details: E. coli pPROTet-GST 10^8 cfu/mouse i.p., i.p. ×2
Experimental: Groups 5 through 8 served as vector control. The control inoculum was prepared from E. coli pPROTet-GST whose vector carries a gene encoding glutathione S-transferase, but no Pro-3 peptide. E. coli pPROTet-GST was cultured at 37° C. for 17 hr in Luria-Bertani broth containing spectinomycin and chloramphenicol, and then 100 μl of the culture were diluted to 1 ml with the medium for reading OD at 600 nm (0.2858, the medium as blank). Then 3×10^9 cfu (1.05 ml) from the overnight culture were diluted to 15 ml with 0.01 M phosphate buffered saline containing 8% hog gastic mucin. Each mouse of groups 5 through 8 was injected (i.p.) with E. coli pPROTet-GST inocula equivalent to 1×10^8 cfu/mouse (lethal dose).
(§1) One and four hours after the inoculation, groups 1 and 5 animals received a saline injection i.p. at 10 ml/kg; groups 2, 3 and 4 animals received i.p. injections of anhydrotetracycline at 2, 1 and 0.5 mg/kg (diluted in saline), respectively; groups 6, 7 and 8 received i.p. injections of anhydrotetracycline at 2, 1 and 0.5 mg/kg, respectively. The injection volume for all the animals was 10 ml/kg.

[1] = tested on: E. coli JM109/pSC/pC^3844; test: Lethal i.p. infection in mice, induced in vivo expression of Pro-3; design: species or system CD-1 female mice; details: E. coli JM109/pSC/pC^3844 10^8 cfu/mouse i.p., i.p. ×2
Source text: Intracellularly expressed Pro-3 was expected to bind to and inhibit a specific essential cellular target in a manner similar to that of an antimicrobial drug. Pro-3 was expected to cure the infection when its expression was induced in an animal model of bacterial infection. An established animal infection model was used to test this concept (C. O. Onyeji et al., Antimicrob. Agents Chemother. 38:1112-1117 (1994)).
Eight groups of CD-1 female mice (5 mice per group, Charles River Laboratories; Wilmington, Mass.) weighing 20-24 g were used in this experiment. The inoculum was prepared from E. coli JM109/pSC/pC^3844 which was cultured at 37° C. for 17 hr in Luria-Bertani broth containing spectinomycin and chloramphenicol, and then 100 μl of the culture was diluted to 1 ml with medium for reading OD at 600 nm (0.2403, the medium as blank). The turbidity of a 0.5 McFarland standard is equivalent to OD6000.1, or 10^8 cfu/ml. Then 3×10^9 cfu (colony-forming units) of E. coli JM109/pSC/pC^3844 (1.25 ml) from the overnight culture were diluted to 15 ml with 0.01 M phosphate buffered saline (Sigma P-0261) containing 8% hog gastric mucin (Sigma M-2378), 100 μg/ml spectinomycin and 68 μg/ml chloramphenicol. Each mouse of groups 1 through 4 was injected with 0.5 ml of the inoculum intraperitoneally (i.p.), equivalent to 1×10^8 cfu/mouse (lethal dose).
as §1

S. aureus MetRS = S. aureus MetRS (Staphylococcus aureus, UniProt Q5HII6); test: S. aureus MetRS aminoacylation (functional charging) assay; type: biochemical
Experimental: The activity of S. aureus MetRS was monitored by the aminoacylation reaction. The enzyme was diluted in 50 mM HEPES, pH 7.55, 5 mM DTT and 0.01% BSA. A typical 50 μL reaction mixture contained 30 mM HEPES, pH 7.5, 10 mM MgCl2, 30 mM KCl, 90 μM E. coli tRNA, 2 mM ATP and 5 μM [^3H]-methionine (10 Ci/mmol). The reaction was initiated by addition of enzyme at 25° C. At 4 different timepoints, 10 μL of the reaction was quenched into 150 μL cold 5% TCA on a Millipore filter plate. The filter plate is then washed three times with cold 5% TCA followed by water and then ethanol. The filter plate was dried before addition of 100 μL Packard Microscint-20 and counted on a Packard Top-Count microplate scintillation counter.
Inhibition studies were performed for the peptides against two of the substrates, ATP and methionine. This was done at varying concentrations of peptides by holding the concentration of one substrate at its K value (1.5 mM for ATP and 5 μM for methionine), while varying the other substrate concentration around its Km value. The initial velocity data obtained were then analyzed using GraFit.

Sa MetRS = Sa MetRS (Staphylococcus aureus, UniProt Q5HII6); test: Sa MetRS/Met1-F fluorescence polarization binding assay
Experimental: A non-radioactive, homogeneous, sensitive fluorescent polarization (FP) assay has been developed for Staphylococcus aureus MetRS (Sa MetRS) and Met1 peptide. FP is a ratiometric detection method which is capable of discriminating between free and bound states of fluorescently labeled tracer based on differences in the rotation rates of the two states. The Sa MetRS FP binding assay involves the incubation of fluorescently labeled Met1 peptide (Met1-F) with purified Sa MetRS. In the bound state, Met1-F is bound to Sa MetRS and an increase in polarization signal is detected using a FP detection system. In the free state, Met1-F is not bound to Sa MetRS and there is a decrease in polarization signal.
A 96-well plate (Costar cat# 3915) was blocked for 1 hour at room temperature with 150 μL/well 2 mg/ml bovine serum albumin (BSA) (FisherBiotech cat# BP1600-100) in 0.1 M NaHCO3. The plate was then washed manually three times with 150 μL/well of TBS (10 mM Tris-HCl pH 8.0, 150 mM NaCl). […] The plate was then read in an LJL Analyst (LJL Biosystems, Sunnyvale Calif.) in fluorescent polarization mode.
The FP assay for Sa MetRS inhibition has been evaluated to see if it is amenable for high throughput screening (HTS) for drug discovery. […] The IC50 for Met1 was tested on the plate in duplicate and the results were consistent with previously determined values. […]

[2] = tested on: E. coli JM109/pSC/pC^3844; test: E. coli growth in culture upon regulated expression of Pro-3/GST; type: cell-based, Escherichia coli; details: anhydrotetracycline induction, compared with GST alone
Experimental: Overnight cultures of JM109/pSC cells harboring pC^3844 (JM109/pSC/pC^3844), or pPROTet-GST (same as pC^3844 without the Pro-3 peptide sequence) were diluted 100-fold in fresh LB medium containing 34 μg/mL chloramphenicol and 50 μg/mL spectinomycin. After 2 hours growth at 37° C., 100 μL aliquots of each of these bacterial cultures were transferred to wells of a 96-well microtiter plate, with or without 10 ng of anhydrotetracycline dissolved in 1 μL ethanol. The growth of bacterial cultures, which were constantly under agitation, was monitored with a plate reader (SpectraMAX-250, Molecular Devices).

E. coli ProRS = target: T1, E. coli ProRS (Escherichia coli, UniProt P16659); test: E. coli ProRS tRNA charging (aminoacylation) inhibition; type: biochemical; details: read-out: K, (inhibition of E. coli ProRS aminoacylation activity)
T1 construct: made in house
T1 sequence (P16659 whole entry, looked up): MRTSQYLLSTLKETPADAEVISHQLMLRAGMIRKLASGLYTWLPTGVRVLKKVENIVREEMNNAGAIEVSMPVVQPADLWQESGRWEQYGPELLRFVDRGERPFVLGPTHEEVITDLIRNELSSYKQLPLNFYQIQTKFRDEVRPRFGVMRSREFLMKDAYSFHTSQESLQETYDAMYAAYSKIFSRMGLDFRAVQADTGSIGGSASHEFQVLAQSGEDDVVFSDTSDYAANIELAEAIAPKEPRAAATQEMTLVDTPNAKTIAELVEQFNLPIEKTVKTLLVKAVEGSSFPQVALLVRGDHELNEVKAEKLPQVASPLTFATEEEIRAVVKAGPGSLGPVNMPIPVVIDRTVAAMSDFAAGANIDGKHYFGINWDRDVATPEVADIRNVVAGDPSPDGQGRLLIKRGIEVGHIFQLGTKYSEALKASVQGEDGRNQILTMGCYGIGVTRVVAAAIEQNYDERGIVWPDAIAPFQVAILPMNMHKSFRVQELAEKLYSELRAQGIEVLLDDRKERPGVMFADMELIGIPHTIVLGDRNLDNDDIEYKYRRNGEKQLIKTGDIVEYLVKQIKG
Source text: In order to produce pure protein for peptide selection, the E. coli ProRS gene (Genbank accession number: M97858) was PCR amplified and cloned into the pET-20b vector (Novagen) using standard molecular cloning protocols (J. Sambrook, et al., Molecular Cloning: A Laboratory Manual, 2nd edition, Cold Spring Harbor Laboratory Press, 1989). The overexpressed ProRS was purified sequentially on Q- and SP-Sepharose columns. […] Thirteen clones from phages that were identified as having a high affinity to ProRS were sequenced. These clones share 4 different sequences, 3 of which are closely related (Table l). See Example 4 of WO98/19162, published 7 May 1998.
The peptide having sequence number 3 was synthesized and tested for inhibition of tRNA charging activity of E. coli ProRS. […] This peptide is called Pro-3 (also, Pro3).
The expressed Pro-3/GST fusion protein was purified on a glutathione-agarose affinity column according to a procedure provided by Pharmacia (see, cg., procedures manual from Pharmacia P-L Biochemicals, Inc.: GST Gene Fusion System, regarding use of pGEX expression vectors and glutathione-S-transferase fusion proteins, 1993). The N-terminal sequence of the purified protein was determined by Edman cycles and confirmed to have the expected Pro-3 peptide sequence. […]

[3] = target: T2, E. coli prolyl-tRNA synthetase (ProRS) (Escherichia coli), P16659; test: inhibition of tRNA charging activity, synthetic peptide
T2 chain: T1 sequence (P16659 whole entry, looked up)

[4] = target: E. coli prolyl-tRNA synthetase (ProRS) (Escherichia coli) (UniProt P16659); test: inhibition of ProRS enzyme activity, purified fusion protein
[5] = target: E. coli prolyl-tRNA synthetase (ProRS) (Escherichia coli) (UniProt P16659); test: cell-based or functional assay

S. aureus MetRS, sequence (Q5HII6 whole entry): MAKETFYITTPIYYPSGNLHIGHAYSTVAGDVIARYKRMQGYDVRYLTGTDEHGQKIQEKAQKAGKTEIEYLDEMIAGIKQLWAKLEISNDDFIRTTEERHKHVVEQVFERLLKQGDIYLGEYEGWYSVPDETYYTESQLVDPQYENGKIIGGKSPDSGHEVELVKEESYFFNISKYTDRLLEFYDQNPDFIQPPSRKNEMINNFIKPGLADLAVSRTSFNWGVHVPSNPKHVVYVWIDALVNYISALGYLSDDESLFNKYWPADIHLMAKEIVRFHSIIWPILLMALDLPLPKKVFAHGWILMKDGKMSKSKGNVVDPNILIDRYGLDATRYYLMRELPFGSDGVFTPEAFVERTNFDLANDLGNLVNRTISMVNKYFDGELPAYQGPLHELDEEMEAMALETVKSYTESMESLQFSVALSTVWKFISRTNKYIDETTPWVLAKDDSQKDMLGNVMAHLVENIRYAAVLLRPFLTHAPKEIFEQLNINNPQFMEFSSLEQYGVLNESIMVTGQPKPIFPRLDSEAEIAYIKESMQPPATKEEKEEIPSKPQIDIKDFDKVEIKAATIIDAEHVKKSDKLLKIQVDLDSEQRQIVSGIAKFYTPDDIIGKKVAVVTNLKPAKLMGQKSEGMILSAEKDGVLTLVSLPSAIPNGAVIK
Sa MetRS, sequence (Q5HII6 whole entry): as above

Cc1c2c(c(O)c3c(O)cccc13)C(=O)[C@]1(O)C(=O)C(C(N)=O)=C(O)[C@@H](N(C)C)[C@@H]1C2 [Anhydrotetracycline, anhydrotetracycline]
Survival (7 days) (E. coli pPROTet-GST; inducer 0.5 mg/kg): 0/5
Survival (7 days) (E. coli pPROTet-GST; inducer 1 mg/kg): 0/5
Survival (7 days) (E. coli pPROTet-GST; inducer 2 mg/kg): 0/5
Survival (7 days) ([1]; inducer 0.5 mg/kg): 5/5
Survival (7 days) ([1]; inducer 1 mg/kg): 5/5
Survival (7 days) ([1]; inducer 2 mg/kg): 5/5

CSCC[C@H](NC(=O)[C@@H]1CCCN1C(=O)[C@H](Cc1c[nH]c2ccccc12)NC(=O)[C@H](CCCNC(=N)N)NC(=O)[C@H](CC(C)C)NC(=O)[C@H](CCC(N)=O)NC(=O)[C@H](Cc1c[nH]c2ccccc12)NC(=O)[C@@H](NC(=O)[C@H](CC(N)=O)NC(=O)[C@@H]1CCCN1C(=O)[C@@H](N)CC(=O)O)[C@@H](C)O)C(=O)N[C@@H](Cc1c[nH]cn1)C(=O)O [JT01, DPNTWQLRWPMH] (H-DPNTWQLRWPMH-OH; N-terminus and C-terminus assumed)
solubility: > 100 µM
IC50 (S. aureus MetRS): 0.2 µM
Ki (S. aureus MetRS; Kl (ATP), ATP varied, methionine held at 5 μM): 13 nM
Ki (S. aureus MetRS; Kl (methionine), methionine varied, ATP held at 1.5 mM): 138 nM
IC50 (Sa MetRS): 700 nM

MWDLPYIWSRPV [JT02]
Ki (S. aureus MetRS; methionine varied, ATP held at 1.5 mM, read-out: Kl (methionine)): 1700 nM

Pro-3/GST: Pro-3 peptide fused through a 4-amino acid linker to glutathione S-transferase (GST), expressed from pC^3844 (SREWHFWRDYNPTSREGGG; also: fused to GST through a linker, GST left off)
E. coli growth (OD600) upon expression [2]: inhibits E. coli growth
Ki (E. coli ProRS): 180 nM

B1: Pro-3 peptide (…) (peptide)
peptide: SREWHFWRDYNPTSR
modifications: not checked
Ki [3]: 300 nM

B2: Pro-3/GST fusion protein (peptide)
chain: SREWHFWRDYNPTSREGGG
Ki [4]: 180 nM
Charged tRNA (tRNA-Pro) in cells, +Inducer [5]: 23%
Charged tRNA (tRNA-Pro) in cells, -Inducer [5]: 70%
Survival (7 days), mice infected with E. coli JM109/pSC/pC3844, anhydrotetracycline 0.5 mg/kg i.p. x2 [5]: 5 of 5 mice
Survival (7 days), mice infected with E. coli JM109/pSC/pC3844, anhydrotetracycline 1 mg/kg i.p. x2 [5]: 5 of 5 mice
Survival (7 days), mice infected with E. coli JM109/pSC/pC3844, anhydrotetracycline 2 mg/kg i.p. x2 [5]: 5 of 5 mice
Survival (7 days), mice infected with E. coli JM109/pSC/pC3844, saline (no induction) [5]: 0 of 5 mice
